# Results taken from patent publication US20080261891A1, “COMPOSITIONS AND METHODS FOR USING SYRINGOPEPTIN 25A AND RHAMNOLIPIDS” (Utah State University, priority 2007, published 2008).
# “And” between values parts separate entries of the source, which are not always exact repeats. Equal entries are not always repeated. “Also recorded” adds a separate entry of the source. Where two headings read alike, the source gives them in different places. Where a SMILES comes first, the peptide text is derived from it. Bridges are numbered along the chain shown (N, C = ends). [ ]: non-standard residue; d: D form. The star is where a group is joined. ξ: configuration not given here. Decanoyl(3ξ-OH) = CCCCCCCC(O)CC(=O)*; Dab = NCC[CH](N)C(=O)O; Dhb = C/C=C(\N)C(=O)O
# Assays:
# RBC = conditions: reported by Dalla Serra et al. 1999; cited from earlier work
# [1] = test system: Listeria monocytogenes EGDe; assay: Cell growth (cell density, OD600) during treatment over 120 min; type: cell-based
# Experimental: FIG. 6B includes a graph that illustrates the amount of cell growth in response to being treated with SP 25A, RLs and saline (control) over a period of 120 min. […] The lack of positive correlation between membrane permeabilization (FIG. 6A) and inhibition of cell growth (FIG. 6B) of SP 25A inferred that the pore forming model alone was not be responsible for all of the antimicrobial properties of SP 25A.
# Listeria monocytogenes EGDe was thawed and subcultured twice at 37° C. in brain heart infusion broth (BHI) (DIFCO, Franklin Lanes, N.J.). An overnight culture was diluted 10 fold in sterile medium and grown for 4 h to an OD600 of 1.7, which corresponded to ˜10^9 cfu/mL. The cell preparation was exposed to either 3 μg/mL SP 25A or 6 μg/mL RLs. Treatment with both RLs and SP 25A caused membrane permeabilization (FIG. 6A), but each reduced cell growth (FIG. 6B) of L. monocytogenes by different amounts. […]
# (§1) Total RNA was extracted from a 1.8 mL culture immediately before treating the cells with SP 25A and RLs (T0), after 30 min (T30), and at 120 min (T120) of exposure at 37° C. Simultaneously, the cell density was measured at OD600. Membrane permeabilization was determined by measuring the PI uptake. […] Each well contained five probes for each open reading frame in the entire genome.
# [2] = test system: organisms tested (gram-positive and gram-negative bacteria, Table 1)
# Mycobacterium smegmatis = type: cell-based
# [3] = test system: selected human cancer cell lines;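 further: MTT dye viability readout in semi-confluent cancer cells, compound exposure 1-24 hours, MTT then 4 hours at 37 °C, compared against untreated negative control wells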
# Experimental: Cancer cell assays can be performed using the MTT dye protocol. Viability of cells may be determined by the dye response. In the following procedure, approximately 1.5×10^4 cells per well can be added and viability may be determined with the cells in a semi-confluent state. The assay can be performed in a 96-well microtiter plate using a New Brunswick Cell Counter. After addition of the compound or compounds of the present invention, the plate may incubate for 1-24 hours. MTT may be added to each well including negative control wells untreated with the compounds of the present invention. The plate would then be incubated at 37° C. for 4 hours. The liquid contents of each well can then be removed, and isopropanol with 0.1 M HCl would then be added to each well. The plate can be sealed with parafilm to prevent evaporation of the isopropanol. The plate would then be allowed to sit for approximately 5-10 minutes in order to solubilize the precipitate. Purified water would then be added to each well.
# [4] = test system: Clostridium sporogenes (spores); assay: MIC, microbroth dilution method (spore germination); type: cell-based; conditions: inhibition of spore germination, 48 h
# Experimental: (§2) The MIC of the compounds for the organisms was determined by the microbroth dilution method, described hereafter. The microorganisms were prepared as described above and resuspended in their optimal growth media (Table 1) to ˜10^5 CFU/mL containing SP 25A at 2, 3, 4, 5, 6, 7, 8, 16, 32 and 50 μg/mL in a total volume of 550 μL. RL concentrations of 2, 3, 4, 5, 6, 7, 8, 16, 32 and 60 μg/mL in a total volume of 550 μL were tested in a 48-well plate (Corning, N.Y.). The plates were incubated at optimal growth conditions for the respective organism and monitored for an increase in OD600 after 48 h by a Perkin-Elmer (HTS 7000) plate reader (Downers Grove, Ill.). […] Negative controls (no inhibition of growth) were included using saline in the assay for each compound. The lowest concentration at which there was no increase in OD over 48 h was reported as the MIC. Each MIC was determined in replicate with three separate tests per replication. The results of the three tests were averaged for each replicate.
# [5] = test system: Bacillus subtilis (spores); assay: as above; type: cell-based; conditions: inhibition of spore germination, 48 h
# Experimental: as §2
# [6] = test system: Listeria monocytogenes EGDe; assay: Membrane permeabilization by PI uptake during treatment; type: cell-based
# Experimental: Membrane permeabilization was determined through following the change in fluorescence of a dye, propidium iodide (“PI”). PI is unable to pass through the cell membrane unless the membrane has been physically compromised. Once inside the cell, the intercalation of the PI with the DNA of the cell causes the fluorescent properties of the dye to change. This change in fluorescence can be measured. Therefore, an uptake of PI indicates an increase in membrane permeabilization.
# FIGS. 6A includes a graph that illustrates the amount of membrane permeabilization in response to SP 25A and RLs. Membrane permeabilization was determined by the increase in fluorescence (RFU) with PI uptake during treatment of L. monocytogenes with SP 25A and RLs over a period of 120 min.
# Listeria monocytogenes EGDe was thawed and subcultured twice at 37° C. in brain heart infusion broth (BHI) (DIFCO, Franklin Lanes, N.J.). […]
# as §1
structure (smiles),measurement,setting,value
"C/C=C(\NC(=O)C(C)NC(=O)C(C)NC(=O)C(CC(C)C)NC(=O)C(NC(=O)C(C)NC(=O)C(C)NC(=O)C(NC(=O)C1CCCN1C(=O)/C(=C/C)NC(=O)CC(O)CCCCCCC)C(C)C)C(C)C)C(=O)NC(C(=O)N/C(=C\C)C(=O)NC(C)C(=O)NC(C(=O)NC(C)C(=O)NC(C)C(=O)N/C(=C\C)C(=O)NC1C(=O)NC(CO)C(=O)NC(C)C(=O)NC(C(C)C)C(=O)NC(C)C(=O)NC(CCN)C(=O)NC(CCN)C(=O)NC(Cc2ccc(O)cc2)C(=O)OC1C)C(C)C)C(C)C (stereo not shown) [SP 25A, syringopeptin 25A] ({Decanoyl(3ξ-OH)}-[Dhb]PVAAVLAA[Dhb]V[Dhb]AVAA[Dhb]TSAVA[Dab][Dab]Y; ester 18-C; configuration not given here)",concentration to achieve 50% RBC hemolysis,RBC,8880 ng/mL
same,growth of culture (cell density),"[1]; 3 μg/mL SP 25A, during 120 min, control culture grew by 15.3%",did not grow
same,inhibition of cell growth,"[1]; in comparison to the saline control, 120 min",completely inhibited cell growth; also recorded: complete inhibition of cell growth
same,MIC range for the organisms tested,[2],3 to 16 µg/mL
same,MICs against gram-positive bacteria,[2],≤ 8 µg/mL
same,growth inhibition of gram-negative organisms tested,"[2]; gram-negative organisms, except F. devorans",did not inhibit the growth
same,MIC,Mycobacterium smegmatis,4 µg/mL
same,IC50,[3]; Bone (U2OS),101.47 µg/mL
same,% cytotoxicity,"[3]; Bone (U2OS), 1.00 ug/ml",−10.06%
same,% cytotoxicity,"[3]; Bone (U2OS), 2.50 ug/ml",−3.64%
same,% cytotoxicity,"[3]; Bone (U2OS), 5.00 ug/ml",1.69%
same,% cytotoxicity,"[3]; Bone (U2OS), 10.00 ug/ml",4.93%
same,IC50,[3]; Breast (MCF-7),30.27 µg/mL
same,% cytotoxicity,"[3]; Breast (MCF-7), 1.00 ug/ml",−20.40%
same,% cytotoxicity,"[3]; Breast (MCF-7), 2.50 ug/ml",−1.12%
same,% cytotoxicity,"[3]; Breast (MCF-7), 5.00 ug/ml",1.76%
same,% cytotoxicity,"[3]; Breast (MCF-7), 10.00 ug/ml",16.52%
same,IC50,[3]; Breast (MDA-MB231),10.14 µg/mL
same,% cytotoxicity,"[3]; Breast (MDA-MB231), 1.00 ug/ml",−12.40%
same,% cytotoxicity,"[3]; Breast (MDA-MB231), 2.50 ug/ml",9.23%
same,% cytotoxicity,"[3]; Breast (MDA-MB231), 5.00 ug/ml",21.98%
same,% cytotoxicity,"[3]; Breast (MDA-MB231), 10.00 ug/ml",49.30%
same,IC50,[3]; Breast (MDA-MB435),6.25 µg/mL
same,% cytotoxicity,"[3]; Breast (MDA-MB435), 1.00 ug/ml",20.78%
same,% cytotoxicity,"[3]; Breast (MDA-MB435), 2.50 ug/ml",−5.22%
same,% cytotoxicity,"[3]; Breast (MDA-MB435), 5.00 ug/ml",18.84%
same,% cytotoxicity,"[3]; Breast (MDA-MB435), 10.00 ug/ml",79.98%
same,IC50,[3]; Cervical (HeLa),25.50 µg/mL
same,% cytotoxicity,"[3]; Cervical (HeLa), 1.00 ug/ml",1.68%
same,% cytotoxicity,"[3]; Cervical (HeLa), 2.50 ug/ml",3.50%
same,% cytotoxicity,"[3]; Cervical (HeLa), 5.00 ug/ml",1.08%
same,% cytotoxicity,"[3]; Cervical (HeLa), 10.00 ug/ml",19.61%
same,IC50,[3]; Colon (HT29),29.72 µg/mL
same,% cytotoxicity,"[3]; Colon (HT29), 1.00 ug/ml",8.89%
same,% cytotoxicity,"[3]; Colon (HT29), 2.50 ug/ml",23.85%
same,% cytotoxicity,"[3]; Colon (HT29), 5.00 ug/ml",24.59%
same,% cytotoxicity,"[3]; Colon (HT29), 10.00 ug/ml",16.83%
same,IC50,[3]; Lung (A549),11.41 µg/mL
same,% cytotoxicity,"[3]; Lung (A549), 1.00 ug/ml",15.66%
same,% cytotoxicity,"[3]; Lung (A549), 2.50 ug/ml",13.51%
same,% cytotoxicity,"[3]; Lung (A549), 5.00 ug/ml",41.14%
same,% cytotoxicity,"[3]; Lung (A549), 10.00 ug/ml",43.82%
same,IC50,[3]; Ovarian (OVCAR3),19.75 µg/mL
same,% cytotoxicity,"[3]; Ovarian (OVCAR3), 1.00 ug/ml",6.42%
same,% cytotoxicity,"[3]; Ovarian (OVCAR3), 2.50 ug/ml",16.30%
same,% cytotoxicity,"[3]; Ovarian (OVCAR3), 5.00 ug/ml",16.41%
same,% cytotoxicity,"[3]; Ovarian (OVCAR3), 10.00 ug/ml",25.31%
same,IC50,[3]; Prostate (DU145),6.56 µg/mL
same,% cytotoxicity,"[3]; Prostate (DU145), 1.00 ug/ml",26.92%
same,% cytotoxicity,"[3]; Prostate (DU145), 2.50 ug/ml",23.60%
same,% cytotoxicity,"[3]; Prostate (DU145), 5.00 ug/ml",45.22%
same,% cytotoxicity,"[3]; Prostate (DU145), 10.00 ug/ml",76.25%
same,IC50,[3]; Stomach (AGS),18.58 µg/mL
same,% cytotoxicity,"[3]; Stomach (AGS), 1.00 ug/ml",4.00%
same,% cytotoxicity,"[3]; Stomach (AGS), 2.50 ug/ml",13.87%
same,% cytotoxicity,"[3]; Stomach (AGS), 5.00 ug/ml",26.88%
same,% cytotoxicity,"[3]; Stomach (AGS), 10.00 ug/ml",26.90%
same,MIC,[4],4 µg/mL
same,MIC,[5],4 µg/mL
same,increase in membrane permeabilization (PI uptake),"[6]; L. monocytogenes EGDe, 3 μg/mL SP 25A, after 30 min",~2% and 2.6%
same,PI uptake (membrane permeabilization),"[6]; L. monocytogenes, sub-MIC doses, over 120 min",did not
